These results are taken from patent US20130172847A1, “Compositions for Providing Vitamin D Year Round and Uses Thereof” (priority 2002, published 2013).

The conditions of series [1]: human skin or organic solvent exposed to 295 nm radiation; cited from earlier work.
The conditions of series [2]: cited from earlier work.
Series [3] in a line: Conversion of 7-DHC and/or T3 to PreD3 in ethanol under winter natural sunlight. The format is physicochemical. The source says:
(§1) In contrast, compositions comprising increasing amounts of T3 produce increasing amounts of PreD3 when exposed to winter sunlight.
(§2) Conversion of 7-Dehydrocholesterol (7-DHC) and/or Tachysterol (T3) to Previtamin D3 (PreD3)

Series [4] can be described thus: Conversion of 7-DHC and/or T3 to PreD3 in cream under artificial UVB light (simulates summer sunlight). The format is physicochemical. As to conditions: for % Yield / PreD3 Formed: Cream (1 g), artificial UVB 2 min.
Source text: as §1, §2

Series [5] can be described thus: Conversion of 7-DHC and/or T3 to PreD3 in cream under winter natural sunlight. The format is physicochemical. Conditions: Cream (1 g); natural sunlight 5-60 min; start 7-DHC 1.0 μg, T3 0 μg.
Source text: as §1, §2

The mark [6] stands for this setting: Ethanol (1 ml), natural sunlight 90 min, start 7-DHC 0 μg, T3 10 μg.

Bounds are passed on as bounds.

As to `CC(C)CCC[C@@H](C)[C@H]1CC[C@H]2C3=CC=C4C[C@@H](O)CC[C@]4(C)[C@H]3CC[C@]12C` [7-DHC, 7-Dehydrocholesterol], the “provitamin D3 converted to previtamin D3” value in series [1] was “up to 65%”. Moreover, in series [2] (exposed to light in the range of 254 nm), the “portion of tachysterol among photoproducts” value was “about 75%”. Also, the “previtamin D3 produced” value in series [2] (irradiated at 0° C. with 254 nm light, thereafter (0° C.) with 350 nm light) is reported as not above 83%. Moreover, the “% Yield” value is 0% in series [3] (Ethanol (1 ml), natural sunlight 90 min, start 7-DHC 10 μg, T3 0 μg); 26% in series [4] (start 7-DHC 1.0 μg, T3 0 μg); 0% in series [5]. Besides, in series [3] (winter natural sunlight, summary of the table), the “conversion to PreD3 when exposed to winter sunlight (in words)” value is given as “inefficiently converted to PreD3”. For the same molecule, the “PreD3 Formed” value in series [4] (start 7-DHC 1.0 μg, T3 0 μg) is 0.26 µg. For the same molecule, in series [4], the “conversion to PreD3 when exposed to artificial UVB light (in words)” value is given as “converted to PreD3”.
As to `CC1=C(/C=C\C2=CCC[C@]3(C)[C@@H]([C@H](C)CCCC(C)C)CC[C@@H]23)C[C@@H](O)CC1` [T3, Tachysterol], in series [3] (setting [6]), the “% Yield” value is recorded as 77% and the “PreD3 Formed” value amounted to 7.1 µg. In series [4] (start 7-DHC 0 μg, T3 1 μg), the “% Yield” value is 52% and the “PreD3 Formed” value is 0.52 µg. For the same molecule, in series [4], the “conversion to PreD3 when exposed to artificial UVB light (in words)” value is “converted to PreD3”.
